Columns and labels:
Test in all cases: relative viability (nuclei count vs DMSO), 5 days (fraction); higher = more cells survive
201T = system: 201T
Outline: (§1)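 After 5 days of treatment, lung cancer cells in 1536-well plates were fixed and stained in a single step (final 0.05% Triton X-100, 1% formaldehyde, 1 ug/ml Hoechst) and their nuclei counted on 4× images. Treatment had been applied by pin tool the day after seeding as one drug alone or as a fixed anchor-drug dose with five library-drug doses (not always all listed) in √10 steps. Relative viability is the nuclei count of treated wells divided by that of vehicle wells, and values are medians of duplicate plates.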

NCI-H322M = system: NCI-H322M
Outline: as §1

H3255 = system: H3255
Outline: as §1

LK-2 = system: LK-2
Outline: as §1

NCI-H596 = system: NCI-H596
Outline: as §1

NCI-H2087 = system: NCI-H2087
Outline: as §1

NCI-H2170 = system: NCI-H2170
Outline: as §1

NCI-H2126 = system: NCI-H2126
Outline: as §1

LXF-289 = system: LXF-289
Outline: as §1

CAL-12T = system: CAL-12T
Outline: as §1

NCI-H441 = system: NCI-H441
Outline: as §1

EMC-BAC-2 = system: EMC-BAC-2
Outline: as §1

NCI-H1755 = system: NCI-H1755
Outline: as §1

NCI-H522 = system: NCI-H522
Outline: as §1

NCI-H2009 = system: NCI-H2009
Outline: as §1

NCI-H647 = system: NCI-H647
Outline: as §1

HOP-62 = system: HOP-62
Outline: as §1

SW 900 = system: SW 900
Outline: as §1

NCI-H1651 = system: NCI-H1651
Outline: as §1

NCI-H1734 = system: NCI-H1734
Outline: as §1

NCI-H1563 = system: NCI-H1563
Outline: as §1

COCC1(CO)C(=O)C2CCN1CC2 (stereo unspecified) [PRIMA-1MET] + Nc1nc2[nH]cc(CCc3ccc(C(=O)N[C@@H](CCC(=O)O)C(=O)O)cc3)c2c(=O)[nH]1 [Pemetrexed] (partner 0.2 µM)
relative viability (201T; first compound 0.2 µM): 0.302 | relative viability (201T; first compound 0.6325 µM): 0.339 | relative viability (201T; first compound 2 µM): 0.332 | relative viability (201T; first compound 6.325 µM): 0.346 | relative viability (201T; first compound 20 µM): 0.328 | relative viability (NCI-H322M; first compound 0.2 µM): 0.633 | relative viability (NCI-H322M; first compound 0.6325 µM): 0.562 | relative viability (NCI-H322M; first compound 6.325 µM): 0.624 | relative viability (NCI-H322M; first compound 20 µM): 0.0887 | relative viability (H3255; first compound 0.2 µM): 0.634 | relative viability (H3255; first compound 0.6325 µM): 0.458 | relative viability (H3255; first compound 2 µM): 0.601 | relative viability (H3255; first compound 6.325 µM): 0.567 | relative viability (H3255; first compound 20 µM): 0.534 | relative viability (LK-2; first compound 0.2 µM): 0.271 | relative viability (LK-2; first compound 0.6325 µM): 0.0831 | relative viability (LK-2; first compound 2 µM): 0.221 | relative viability (LK-2; first compound 6.325 µM): 0.125 | relative viability (LK-2; first compound 20 µM): 0.0594 | relative viability (NCI-H596; first compound 0.2 µM): 0.553 | relative viability (NCI-H596; first compound 0.6325 µM): 0.481 | relative viability (NCI-H596; first compound 2 µM): 0.531 | relative viability (NCI-H596; first compound 6.325 µM): 0.495 | relative viability (NCI-H596; first compound 20 µM): 0.176 | relative viability (NCI-H2087; first compound 0.6325 µM): 0.639 | relative viability (NCI-H2087; first compound 2 µM): 0.68 | relative viability (NCI-H2087; first compound 6.325 µM): 0.61 | relative viability (NCI-H2087; first compound 20 µM): 0.563 | relative viability (NCI-H2170; first compound 0.2 µM): 0.271 | relative viability (NCI-H2170; first compound 0.6325 µM): 0.25 | relative viability (NCI-H2170; first compound 2 µM): 0.274 | relative viability (NCI-H2170; first compound 6.325 µM): 0.258 | relative viability (NCI-H2170; first compound 20 µM): 0.268 | relative viability (NCI-H2126; first compound 0.2 µM): 0.657 | relative viability (NCI-H2126; first compound 0.6325 µM): 0.614 | relative viability (NCI-H2126; first compound 2 µM): 0.609 | relative viability (NCI-H2126; first compound 6.325 µM): 0.699 | relative viability (NCI-H2126; first compound 20 µM): 0.67 | relative viability (LXF-289; first compound 0.2 µM): 0.967 | relative viability (LXF-289; first compound 0.6325 µM): 0.891 | relative viability (LXF-289; first compound 2 µM): 1.09 | relative viability (LXF-289; first compound 6.325 µM): 0.954 | relative viability (LXF-289; first compound 20 µM): 0.875 | relative viability (CAL-12T; first compound 0.2 µM): 1.18 | relative viability (CAL-12T; first compound 0.6325 µM): 1.19 | relative viability (CAL-12T; first compound 2 µM): 1.19 | relative viability (CAL-12T; first compound 6.325 µM): 1.36 | relative viability (CAL-12T; first compound 20 µM): 0.13 | relative viability (NCI-H441; first compound 0.2 µM): 0.24 | relative viability (NCI-H441; first compound 0.6325 µM): 0.2 | relative viability (NCI-H441; first compound 2 µM): 0.271 | relative viability (NCI-H441; first compound 6.325 µM): 0.274 | relative viability (NCI-H441; first compound 20 µM): 0.204 | relative viability (EMC-BAC-2; first compound 0.2 µM): 0.549 | relative viability (EMC-BAC-2; first compound 0.6325 µM): 0.44 | relative viability (EMC-BAC-2; first compound 2 µM): 0.422 | relative viability (EMC-BAC-2; first compound 6.325 µM): 0.459 | relative viability (EMC-BAC-2; first compound 20 µM): 0.473 | relative viability (NCI-H1755; first compound 0.2 µM): 0.465 | relative viability (NCI-H1755; first compound 0.6325 µM): 0.388 | relative viability (NCI-H1755; first compound 2 µM): 0.406 | relative viability (NCI-H1755; first compound 6.325 µM): 0.333 | relative viability (NCI-H1755; first compound 20 µM): 0.373 | relative viability (NCI-H522; first compound 0.2 µM): 0.789 | relative viability (NCI-H522; first compound 0.6325 µM): 0.927 | relative viability (NCI-H522; first compound 2 µM): 1.01 | relative viability (NCI-H522; first compound 6.325 µM): 0.946 | relative viability (NCI-H522; first compound 20 µM): 0.423 | relative viability (NCI-H2009; first compound 0.2 µM): 0.973 | relative viability (NCI-H2009; first compound 0.6325 µM): 1.03 | relative viability (NCI-H2009; first compound 2 µM): 1.03 | relative viability (NCI-H2009; first compound 6.325 µM): 0.96 | relative viability (NCI-H2009; first compound 20 µM): 0.435 | relative viability (NCI-H647; first compound 0.2 µM): 0.19 | relative viability (NCI-H647; first compound 0.6325 µM): 0.152 | relative viability (NCI-H647; first compound 2 µM): 0.19 | relative viability (NCI-H647; first compound 6.325 µM): 0.173 | relative viability (NCI-H647; first compound 20 µM): 0.124 | relative viability (HOP-62; first compound 0.2 µM): 0.407 | relative viability (HOP-62; first compound 0.6325 µM): 0.377 | relative viability (HOP-62; first compound 2 µM): 0.36 | relative viability (HOP-62; first compound 6.325 µM): 0.377 | relative viability (HOP-62; first compound 20 µM): 0.122 | relative viability (SW 900; first compound 0.2 µM): 0.522 | relative viability (SW 900; first compound 0.6325 µM): 0.282 | relative viability (SW 900; first compound 6.325 µM): 0.455 | relative viability (SW 900; first compound 20 µM): 0.0805 | relative viability (NCI-H1651; first compound 0.2 µM): 0.641 | relative viability (NCI-H1651; first compound 0.6325 µM): 0.192 | relative viability (NCI-H1651; first compound 2 µM): 0.542 | relative viability (NCI-H1651; first compound 6.325 µM): 0.605 | relative viability (NCI-H1651; first compound 20 µM): 0.651 | relative viability (NCI-H1734; first compound 0.2 µM): 0.403 | relative viability (NCI-H1734; first compound 0.6325 µM): 0.416 | relative viability (NCI-H1734; first compound 2 µM): 0.433 | relative viability (NCI-H1734; first compound 6.325 µM): 0.407 | relative viability (NCI-H1734; first compound 20 µM): 0.0543 | relative viability (NCI-H1563; first compound 0.2 µM): 0.882 | relative viability (NCI-H1563; first compound 0.6325 µM): 0.935 | relative viability (NCI-H1563; first compound 6.325 µM): 0.77 | relative viability (NCI-H1563; first compound 20 µM): 0.887
